In PMC12751012, “Nanoscale Direct-to-Biology Optimization and Structural Insights into Selective S. aureus TrmD Inhibitors” (Journal of Medicinal Chemistry, 2025):

molecular target: T1, S. aureus TrmD (Staphylococcus aureus, UniProt Q2FZ43); test: nanoSAR direct-to-biology FP displacement screening of crude triazoles; assay type: binding; settings: crude triazole at 1 μM, assuming full conversion; 500 nM TrmD, 10 nM tracer 4; read-out: % displaced tracer
T1 construct: made in house; host or cells: E. coli BL21
T1 sequence (Q2FZ43 1-245): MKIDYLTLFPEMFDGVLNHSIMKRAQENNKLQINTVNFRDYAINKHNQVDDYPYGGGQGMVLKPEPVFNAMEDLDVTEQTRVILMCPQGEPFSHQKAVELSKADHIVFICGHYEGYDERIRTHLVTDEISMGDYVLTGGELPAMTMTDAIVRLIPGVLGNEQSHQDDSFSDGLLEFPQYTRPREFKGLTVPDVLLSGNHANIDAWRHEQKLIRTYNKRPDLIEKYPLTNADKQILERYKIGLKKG
Procedure, shortened: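 S. aureus TrmD (500 nM) with tracer 4 (10 nM) in Tris/NaCl/MgCl2/glycerol buffer, pH 7.5, was challenged with unpurified triazoles from in situ CuAAC of alkyne 7 with a 320-member azide library.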

| Structure (SMILES) | inhibition at 1 µM [%] |
| --- | --- |
| CS(=O)(=O)NC(=O)Cn1cc(-c2c[nH]c3nc[nH]c(=O)c23)nn1 [Compound 01G12, S(=O)(=O)(NC(=O)CN1N=NC(C=2C=3C(=O)NC=NC3NC2)=C1)C] | 27 |
| Cc1ccc([C@@H](O)Cn2cc(-c3c[nH]c4nc[nH]c(=O)c34)nn2)cc1 [Compound 03D01, O=C1NC=NC=2NC=C(C=3N=NN(C3)C[C@H](O)c4ccc(cc4)C)C12] | 65 |
| CC[C@H](c1ccccn1)n1cc(-c2c[nH]c3nc[nH]c(=O)c23)nn1 [Compound 04A02, O=C1NC=NC=2NC=C(C=3N=NN(C3)[C@@H](c4ncccc4)CC)C12] | 15 |
| O=c1[nH]cnc2[nH]cc(-c3cn(-c4cc(F)cc(Cl)c4)nn3)c12 [Compound 01H10, Clc1cc(F)cc(N2N=NC(C=3C=4C(=O)NC=NC4NC3)=C2)c1] | 12 |
| O=c1[nH]cnc2[nH]cc(-c3cn(C[C@@H]4COCCO4)nn3)c12 [Compound 03A10, O=C1NC=NC=2NC=C(C=3N=NN(C3)C[C@H]4OCCOC4)C12] | 57 |
| O=c1[nH]cnc2[nH]cc(-c3cn(-c4ccc(OC(F)(F)F)c(Cl)c4)nn3)c12 [Compound 01B11, Clc1c(OC(F)(F)F)ccc(N2N=NC(C=3C=4C(=O)NC=NC4NC3)=C2)c1] | 16 |
| O=c1[nH]cnc2[nH]cc(-c3cn(CCn4ccccc4=O)nn3)c12 [Compound 01C11, O=C1N(C=CC=C1)CCN2N=NC(C=3C=4C(=O)NC=NC4NC3)=C2] | 52 |
| Cc1nnc(Cn2cc(-c3c[nH]c4nc[nH]c(=O)c34)nn2)o1 [Compound 01C02, O=C1NC=NC=2NC=C(C=3N=NN(C3)CC=4OC(=NN4)C)C12] | 27 |
| O=c1[nH]cnc2[nH]cc(-c3cn(-c4cc(Cl)cc(Cl)c4)nn3)c12 [Compound 03E08, Clc1cc(Cl)cc(N2N=NC(C=3C=4C(=O)NC=NC4NC3)=C2)c1] | 23 |
| O=c1[nH]cnc2[nH]cc(-c3cn(-c4ccc(CCO)cc4)nn3)c12 [Compound 02G03, O=C1NC=NC=2NC=C(C=3N=NN(c4ccc(cc4)CCO)C3)C12] | 15 |
| CCc1nnc(Cn2cc(-c3c[nH]c4nc[nH]c(=O)c34)nn2)o1 [Compound 01D06, O=C1NC=NC=2NC=C(C=3N=NN(C3)CC=4OC(=NN4)CC)C12] | 31 |
| O=c1[nH]cnc2[nH]cc(-c3cn(-c4ccc5nccnc5c4)nn3)c12 [Compound 02B02, O=C1NC=NC=2NC=C(C=3N=NN(c4cc5nccnc5cc4)C3)C12] | 8.54 |
| Cc1nc(Cn2cc(-c3c[nH]c4nc[nH]c(=O)c34)nn2)cs1 [Compound 01F09, S1C(=NC(=C1)CN2N=NC(C=3C=4C(=O)NC=NC4NC3)=C2)C] | 53 |
| O=c1[nH]cnc2[nH]cc(-c3cn(Cc4nc5ccccc5[nH]4)nn3)c12 [Compound 01B08, O=C1NC=NC=2NC=C(C=3N=NN(C3)CC4=Nc5c(N4)cccc5)C12] | 43 |
| NC(=O)c1csc(Cn2cc(-c3c[nH]c4nc[nH]c(=O)c34)nn2)n1 [Compound 02F07, S1C(=NC(C(=O)N)=C1)CN2N=NC(C=3C=4C(=O)NC=NC4NC3)=C2] | 91 |
| CC(C)(C)OC(=O)N1CC[C@H](C2CC2)[C@H]1Cn1cc(-c2c[nH]c3nc[nH]c(=O)c23)nn1 [Compound 04C03, O=C(OC(C)(C)C)N1[C@@H]([C@@H](C2CC2)CC1)CN3N=NC(C=4C=5C(=O)NC=NC5NC4)=C3] | 52 |
| O=c1[nH]cnc2[nH]cc(-c3cn(C[C@H]4COc5ccccc5O4)nn3)c12 [Compound 02A07, O=C1NC=NC=2NC=C(C=3N=NN(C3)C[C@@H]4Oc5c(OC4)cccc5)C12] | 81 |
| NS(=O)(=O)c1ccccc1-n1cc(-c2c[nH]c3nc[nH]c(=O)c23)nn1 [Compound 01G01, S(=O)(=O)(N)c1c(N2N=NC(C=3C=4C(=O)NC=NC4NC3)=C2)cccc1] | 42 |

| Structure (SMILES) | inhibition at 1 µM [%] |
| --- | --- |
| COCc1cccc(-n2cc(-c3c[nH]c4nc[nH]c(=O)c34)nn2)c1 [Compound 01C07, O=C1NC=NC=2NC=C(C=3N=NN(c4cc(ccc4)COC)C3)C12] | 17 |
| O=c1[nH]cnc2[nH]cc(-c3cn(-c4ccc5c(c4)OCO5)nn3)c12 [Compound 03C05, O=C1NC=NC=2NC=C(C=3N=NN(c4cc5OCOc5cc4)C3)C12] | 59 |
| O=c1[nH]cnc2[nH]cc(-c3cn(Cc4nnc(C5CC5)o4)nn3)c12 [Compound 04E03, O=C1NC=NC=2NC=C(C=3N=NN(C3)CC=4OC(=NN4)C5CC5)C12] | 44 |
| O=c1[nH]cnc2[nH]cc(-c3cn(-c4cc(F)cc(F)c4)nn3)c12 [Compound 03F09, Fc1cc(F)cc(N2N=NC(C=3C=4C(=O)NC=NC4NC3)=C2)c1] | 25 |
| NC[C@H]1CCC[C@@H](Cn2cc(-c3c[nH]c4nc[nH]c(=O)c34)nn2)C1 [Compound 02A02, O=C1NC=NC=2NC=C(C=3N=NN(C3)C[C@H]4C[C@@H](C[NH3+])CCC4)C12] | 31 |
| O=c1[nH]cnc2[nH]cc(-c3cn(Cc4nccs4)nn3)c12 [Compound 04G04, S1C(=NC=C1)CN2N=NC(C=3C=4C(=O)NC=NC4NC3)=C2] | 68 |
| COC(=O)c1ccc(Cn2cc(-c3c[nH]c4nc[nH]c(=O)c34)nn2)o1 [Compound 01G08, O=C(OC)C=1OC(=CC1)CN2N=NC(C=3C=4C(=O)NC=NC4NC3)=C2] | 44 |
| O=c1[nH]cnc2[nH]cc(-c3cn([C@H]4CCCCC[C@@H]4O)nn3)c12 [Compound 02E03, O=C1NC=NC=2NC=C(C=3N=NN(C3)[C@@H]4[C@@H](O)CCCCC4)C12] | 10 |
| Cc1csc(C[C@H](C)n2cc(-c3c[nH]c4nc[nH]c(=O)c34)nn2)n1 [Compound 01E11, S1C(=NC(=C1)C)C[C@@H](N2N=NC(C=3C=4C(=O)NC=NC4NC3)=C2)C] | 31 |
| O=C(c1ncon1)n1cc(-c2c[nH]c3nc[nH]c(=O)c23)nn1 [Compound 02E12, O=C(N1N=NC(C=2C=3C(=O)NC=NC3NC2)=C1)C4=NOC=N4] | 1.83 |
| Cn1ccc(-n2cc(-c3c[nH]c4nc[nH]c(=O)c34)nn2)n1 [Compound 03G05, O=C1NC=NC=2NC=C(C=3N=NN(C4=NN(C=C4)C)C3)C12] | 25 |
| COC(=O)c1cnoc1Cn1cc(-c2c[nH]c3nc[nH]c(=O)c23)nn1 [Compound 01D12, O=C(OC)C1=C(ON=C1)CN2N=NC(C=3C=4C(=O)NC=NC4NC3)=C2] | 38 |
| O=c1[nH]cnc2[nH]cc(-c3cn(-c4ccnc(CO)c4)nn3)c12 [Compound 02D08, O=C1NC=NC=2NC=C(C=3N=NN(c4cc(ncc4)CO)C3)C12] | 25 |
| CCOP(=O)(CCCn1cc(-c2c[nH]c3nc[nH]c(=O)c23)nn1)OCC [Compound 01H12, P(=O)(OCC)(OCC)CCCN1N=NC(C=2C=3C(=O)NC=NC3NC2)=C1] | 33 |
| O=c1[nH]cnc2[nH]cc(-c3cn(CCn4cnc5ccccc54)nn3)c12 [Compound 03B04, O=C1NC=NC=2NC=C(C=3N=NN(C3)CCN4c5c(N=C4)cccc5)C12] | 71 |
| O=c1[nH]cnc2[nH]cc(-c3cn(C[C@H]4CCCNC4)nn3)c12 [Compound 03H01, O=C1NC=NC=2NC=C(C=3N=NN(C3)C[C@@H]4C[NH2+]CCC4)C12] | 56 |
| N#Cc1ccc(-n2cc(-c3c[nH]c4nc[nH]c(=O)c34)nn2)cc1 [Compound 02D05, O=C1NC=NC=2NC=C(C=3N=NN(c4ccc(C#N)cc4)C3)C12] | 1.83 |
| O=c1[nH]cnc2[nH]cc(-c3cn(Cc4cc(C(F)F)on4)nn3)c12 [Compound 01G06, FC(F)C=1ON=C(C1)CN2N=NC(C=3C=4C(=O)NC=NC4NC3)=C2] | 38 |
